Activity calls are given as the source filed them.
Tests used:
[1] = target: T1, Tyrosine-protein phosphatase non-receptor type 7 (Homo sapiens, UniProt P35236); assay: HePTP tyrosine phosphatase activity blockers – biochemical, absorbance, leukemia target, primary screen (AID 521); assay type: functional
T1 sequence (P35236 whole entry): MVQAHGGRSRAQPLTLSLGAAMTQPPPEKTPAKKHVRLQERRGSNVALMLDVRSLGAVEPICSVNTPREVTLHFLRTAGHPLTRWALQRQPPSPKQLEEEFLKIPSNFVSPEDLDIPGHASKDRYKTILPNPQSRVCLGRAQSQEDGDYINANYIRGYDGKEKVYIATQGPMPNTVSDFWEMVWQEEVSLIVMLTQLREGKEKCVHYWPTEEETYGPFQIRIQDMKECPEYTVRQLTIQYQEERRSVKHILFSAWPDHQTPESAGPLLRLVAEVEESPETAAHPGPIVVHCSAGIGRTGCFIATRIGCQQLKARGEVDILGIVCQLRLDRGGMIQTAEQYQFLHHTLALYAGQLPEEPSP

[2] = HEK-293T viability loss after treatment – luminescence, T-cell screen hits, cytotoxicity control for TCR NF-kB inhibitor project, dose response (AID 489026); assay type: functional, cell-based;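 also: cells exposed to compound about 14 hours before the viability readout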
[3] = target: Heat shock protein HSP 90-alpha (Homo sapiens, UniProt P07900); assay: Luminescence-based dose response biochemical high throughput screening assay for inhibitors of the Heat Shock Protein 90 (HSP90). [Related pubchem assays: 1831 (Summary AID.), 1846 (Confirmation screen.), 1789 (Primary screen.)]
[4] = target: Mitogen-activated protein kinase 10 (Homo sapiens, UniProt P53779); assay: Dose response biochemical screening assay for inhibitors of c-Jun N-Terminal Kinase 3 (JNK3). [Related pubchem assays: 746 ]
[5] = viability loss in THP-1 monocytes – THP-1 cells, cytotoxicity control for Vif-APOBEC3G degradation inhibitor project, dose response (AID 1117359); assay type: functional; conditions: THP-1
[6] = HIV-1 Vif–A3G interaction blockers – biochemical, TR-FRET, GST-Vif 1-94, biotin-A3G peptide, dose response retest, primary screen (AID 1117319); assay type: functional;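 also: TR-FRET signal of purified GST-Vif binding a biotinylated A3G peptide; inhibitors lower the FRET signal by blocking Vif and A3G binding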
[7] = viability loss in Vero cells – cytotoxicity control for Vif-APOBEC3G degradation inhibitor project, dose response (AID 1117358); assay type: functional; conditions: Vero
[8] = Trypanosoma cruzi growth suppression in host cells – NIH3T3 host cells, beta-gal luminescence, confirmation (AID 2044); assay type: functional, cell-based;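 also: intracellular parasites grown in NIH/3T3 mouse fibroblasts as host cells; luminescent beta-galactosidase reporter signal from transgenic T. cruzi replicating inside host cells; inhibitors lower the luminescence signal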
[9] = NIH3T3 cell viability loss – ATP luminescence, mouse fibroblasts, counter-screen, dose response (AID 2010); assay type: functional, cell-based;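 also: cells exposed to compound for about 90 hours before reading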
[10] = target: T2, Aryl hydrocarbon receptor (Homo sapiens, UniProt P35869); assay: Luminescence-based cell-based high throughput dose response assay for activators of the Aryl Hydrocarbon Receptor (AHR). [Related pubchem assays: 2796 (Primary screen (AHR activators in singlicate)), 2845 (Confirmation screen (AHR activators in triplicate)), 434939 (Counterscreen (PXR activators in triplicate)), 2804 (Summary (AHR activators))]; assay type: ADME
T2 sequence (P35869 whole entry): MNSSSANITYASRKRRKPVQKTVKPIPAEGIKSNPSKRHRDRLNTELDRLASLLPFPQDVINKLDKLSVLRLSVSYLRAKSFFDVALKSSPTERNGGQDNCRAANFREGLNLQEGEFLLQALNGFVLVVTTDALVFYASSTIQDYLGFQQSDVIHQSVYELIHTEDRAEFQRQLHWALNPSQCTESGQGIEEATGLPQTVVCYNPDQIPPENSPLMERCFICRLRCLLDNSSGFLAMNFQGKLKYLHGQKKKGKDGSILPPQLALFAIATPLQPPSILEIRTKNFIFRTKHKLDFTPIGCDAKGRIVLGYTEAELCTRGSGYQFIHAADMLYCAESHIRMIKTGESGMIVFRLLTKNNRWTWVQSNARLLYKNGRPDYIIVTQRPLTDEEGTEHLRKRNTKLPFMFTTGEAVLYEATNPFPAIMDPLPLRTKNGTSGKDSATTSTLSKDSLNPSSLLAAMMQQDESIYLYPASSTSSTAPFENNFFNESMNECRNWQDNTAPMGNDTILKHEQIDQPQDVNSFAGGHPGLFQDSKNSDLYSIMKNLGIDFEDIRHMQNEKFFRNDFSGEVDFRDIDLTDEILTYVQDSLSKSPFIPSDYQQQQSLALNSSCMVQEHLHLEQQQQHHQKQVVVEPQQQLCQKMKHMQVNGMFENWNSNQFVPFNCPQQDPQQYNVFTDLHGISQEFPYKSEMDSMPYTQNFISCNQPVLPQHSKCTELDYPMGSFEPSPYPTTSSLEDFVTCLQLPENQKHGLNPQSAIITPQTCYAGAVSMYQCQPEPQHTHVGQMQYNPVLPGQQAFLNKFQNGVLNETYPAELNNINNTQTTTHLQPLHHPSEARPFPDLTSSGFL

[11] = HEK-293T viability loss, compound-treated – cell-based, uHTS hits, cytotoxicity control for B/T-cell NF-kB inhibitor project, dose response (AID 489019); assay type: functional;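 also: IC50 reflects cytotoxicity as loss of cell viability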
[12] = target: T3, Microphthalmia-associated transcription factor (Homo sapiens, UniProt O75030); assay: reducers of TRPM1 reporter luminescence, concentration series – cell-based, SK-MEL-5, cherry-picked, set 3, MITF inhibitor project, dose response (AID 493073); assay type: functional;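 also: SK-MEL-5 melanoma cells with luciferase driven by the MITF target TRPM1 promoter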
T3 sequence (O75030 whole entry): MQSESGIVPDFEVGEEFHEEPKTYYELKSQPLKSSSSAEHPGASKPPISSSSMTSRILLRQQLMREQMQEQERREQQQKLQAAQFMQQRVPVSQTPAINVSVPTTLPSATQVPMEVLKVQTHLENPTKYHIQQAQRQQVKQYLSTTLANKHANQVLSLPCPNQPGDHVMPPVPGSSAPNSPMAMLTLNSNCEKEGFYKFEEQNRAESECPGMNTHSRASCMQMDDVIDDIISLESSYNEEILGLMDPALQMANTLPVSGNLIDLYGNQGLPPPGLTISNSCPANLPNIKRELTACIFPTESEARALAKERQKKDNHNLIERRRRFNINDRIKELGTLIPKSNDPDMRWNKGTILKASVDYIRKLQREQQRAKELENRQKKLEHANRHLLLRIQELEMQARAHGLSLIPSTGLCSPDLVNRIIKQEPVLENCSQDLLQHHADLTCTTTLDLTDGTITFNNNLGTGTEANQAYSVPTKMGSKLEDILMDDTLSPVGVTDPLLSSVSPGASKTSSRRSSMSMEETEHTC

[13] = test system: INS1; assay: INS-1E survival protection against cytokine death – cell-based, luminescence, retest, dose response (AID 449756); assay type: functional; conditions: Rattus norvegicus;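 also: cell death triggered by IL-1 beta plus TNF-alpha plus IFN-gamma mixture; protective hits raise ATP signal compared with cytokine alone wells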
[14] = reduction of Shn3 3'UTR-driven luciferase in osteoblasts – cell-based, Clone20 osteoblasts, firefly luciferase, cherry-picked, dose response (AID 624132); assay type: functional;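 also: firefly luciferase luminescence from reporter carrying the Shn3 3'UTR in osteoblasts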
[15] = target: T4, COUP transcription factor 2 (Homo sapiens, UniProt P24468); assay: Luminescence-based cell-based high throughput dose response assay to identify inhibitors of COUP-TFII (NR2F2).; assay type: functional;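 also: HEK293 cells transiently cotransfected with COUP-TFII expression vector and reporter; luciferase reporter luminescence driven by COUP-TFII from the pX2-168 reporter plasmid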
T4 sequence (P24468 whole entry): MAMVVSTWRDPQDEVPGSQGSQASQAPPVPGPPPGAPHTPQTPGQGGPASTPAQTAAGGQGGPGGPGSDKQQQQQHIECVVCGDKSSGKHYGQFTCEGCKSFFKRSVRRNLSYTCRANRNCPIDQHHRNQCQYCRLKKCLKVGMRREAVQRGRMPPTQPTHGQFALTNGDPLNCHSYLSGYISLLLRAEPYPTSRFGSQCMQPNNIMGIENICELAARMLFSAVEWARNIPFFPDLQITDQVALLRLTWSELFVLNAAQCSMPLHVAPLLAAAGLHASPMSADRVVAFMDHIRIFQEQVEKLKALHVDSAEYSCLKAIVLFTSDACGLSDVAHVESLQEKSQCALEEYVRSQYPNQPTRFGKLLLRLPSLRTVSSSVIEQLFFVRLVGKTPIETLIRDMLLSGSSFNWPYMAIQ

[16] = test system: Jurkat; assay: blockers of NF-kB activation in T cells – Jurkat, luciferase reporter, luminescence, B- and T-cell, dose response (AID 489004); assay type: functional, cell-based; conditions: Homo sapiens;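 also: NF-kB luciferase reporter Jurkat cells stimulated with PMA plus ionomycin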
[17] = non-specific 3'UTR reporter inhibition in Clone20-Shn3RL – cell-based, Renilla luciferase, cherry-picked, counter-screen for Shn3 inhibitor project, dose response (AID 624133); assay type: functional
[18] = loss of viability in HepG2 cells – cell-based, CellTiter-Glo, cherry-picked, cytotoxicity control for Shn3 inhibitor project, dose response (AID 624134); assay type: functional
[19] = blockers of HIV-1 envelope-mediated cell-cell fusion – cherry-pick, dose response (AID 652057); assay type: functional, cell-based
[20] = HIV-1 AD8 envelope cell-cell fusion blockers – cherry-pick, dose response (AID 652062); assay type: functional, cell-based;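 also: luciferase signal from cell-cell fusion driven by HIV-1 clade B AD8 Env; potency is for inhibitors of fusion seen as a drop in luminescence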
[21] = blockers of HIV-1 ZM109 envelope-driven cell-cell fusion – HeLa effector, CEM target cells, luciferase, cherry-pick, dose response (AID 652058); assay type: functional, cell-based;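 also: luciferase signal from HIV-1 Env mediated cell-cell fusion of effector and target cells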
[22] = off-target signal loss in HeLa-CEM21 co-culture – HeLa F-luc CTL cells, cherry-picked, counter-screen for HIV-1 Env fusion inhibitor project, dose response (AID 652040); assay type: functional, cell-based;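 also: potency for signal decrease marking cytotoxic or nonspecific inhibition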
[23] = Luminescence Cell-Based Dose Confirmation HTS to Identify Activators of 5'UTR Stem-Loop Driven Alpha-Synuclein mRNA Translation in H4 Neuroglioblastoma Cells. [Related pubchem assays: 1829 (Project Summary), 1814 (Primary HTS)]; assay type: functional
[24] = Luminescence Cell-Based Dose Response HTS to Identify Activators of Luciferase Translation or Activity in H4 […] Cells. [Related pubchem assays: 1829 (Project Summary), 1814 (Primary HTS)]; assay type: functional
[25] = test system: H4; assay: Luminescence Cell-Based Dose Response HTS to Identify Activators of 5'UTR Stem-Loop Driven Prion Protein mRNA Translation in H4 Neuroglioblastoma Cells. [Related pubchem assays: 1829 (Project Summary), 1814 (Primary HTS)]; assay type: functional; conditions: Homo sapiens
[26] = target: FAD-linked sulfhydryl oxidase ALR (Homo sapiens, UniProt P55789); assay: ALR-catalysed DTT oxidation blockers – biochemical, H2O2 detection, luminescence, cherry-pick, dose response (AID 493248)
[27] = target: T5, Leucine aminopeptidase (Plasmodium falciparum 3D7, UniProt Q8IL11); assay: P. falciparum M17LAP inhibitors, primary screen, biochemical, fluorogenic H-Leu-NHMec substrate, 1536-well (AID 1619); assay type: functional
T5 sequence (Q8IL11 whole entry): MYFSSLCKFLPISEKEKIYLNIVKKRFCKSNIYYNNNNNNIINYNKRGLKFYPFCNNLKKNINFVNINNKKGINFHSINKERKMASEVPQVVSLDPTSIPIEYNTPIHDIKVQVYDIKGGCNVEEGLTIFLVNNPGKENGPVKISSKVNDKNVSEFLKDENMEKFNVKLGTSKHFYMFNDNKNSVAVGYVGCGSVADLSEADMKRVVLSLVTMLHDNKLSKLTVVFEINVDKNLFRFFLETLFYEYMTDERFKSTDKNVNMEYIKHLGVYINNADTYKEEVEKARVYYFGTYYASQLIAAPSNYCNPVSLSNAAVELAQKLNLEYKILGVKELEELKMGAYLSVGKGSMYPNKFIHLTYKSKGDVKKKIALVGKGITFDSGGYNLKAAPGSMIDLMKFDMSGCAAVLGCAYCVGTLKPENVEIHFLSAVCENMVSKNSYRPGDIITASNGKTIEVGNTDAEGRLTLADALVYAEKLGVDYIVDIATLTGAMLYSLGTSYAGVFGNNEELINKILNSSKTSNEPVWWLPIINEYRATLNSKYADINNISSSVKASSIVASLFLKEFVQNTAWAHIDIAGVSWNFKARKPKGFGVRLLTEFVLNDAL

Sequence of Mitogen-activated protein kinase 10 (P53779 whole entry): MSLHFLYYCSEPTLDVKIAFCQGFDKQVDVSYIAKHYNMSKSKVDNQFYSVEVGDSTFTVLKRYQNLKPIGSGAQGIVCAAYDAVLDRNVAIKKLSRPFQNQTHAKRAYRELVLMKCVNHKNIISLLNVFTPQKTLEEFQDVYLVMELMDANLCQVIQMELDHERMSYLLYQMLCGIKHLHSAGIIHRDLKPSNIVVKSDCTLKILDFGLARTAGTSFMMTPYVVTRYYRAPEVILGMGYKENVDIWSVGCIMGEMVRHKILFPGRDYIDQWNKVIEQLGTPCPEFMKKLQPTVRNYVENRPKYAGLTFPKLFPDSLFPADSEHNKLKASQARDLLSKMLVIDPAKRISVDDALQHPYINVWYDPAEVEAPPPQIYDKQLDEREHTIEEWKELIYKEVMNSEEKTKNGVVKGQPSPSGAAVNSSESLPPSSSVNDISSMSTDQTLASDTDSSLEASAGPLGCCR
Sequence of FAD-linked sulfhydryl oxidase ALR (P55789 whole entry): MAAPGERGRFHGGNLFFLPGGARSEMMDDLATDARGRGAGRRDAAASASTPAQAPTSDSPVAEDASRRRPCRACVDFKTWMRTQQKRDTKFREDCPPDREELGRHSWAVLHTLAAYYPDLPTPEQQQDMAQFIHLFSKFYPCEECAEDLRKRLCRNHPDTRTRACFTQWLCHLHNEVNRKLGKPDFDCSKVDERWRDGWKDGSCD

O=C(O)C1(c2ccc(Cl)cc2)CCC1
IC50 [1]: > 100 µM (not active)

CN(C)c1ccc(-c2nn3c(-c4ccccc4Cl)nnc3s2)cc1
IC50 [2]: > 80 µM (inactive)
IC50 [1]: > 100 µM (not active)

COc1cc(N2Cc3ccccc3C2)ccc1C=O
IC50 [3]: > 7 µM (active)

Cc1ccccc1-n1nc(C)c2cc(C(=O)NCc3cccnc3)sc21
IC50 [4]: 10.6 µM (not active)

CC(NC(=O)c1ccco1)C(c1cccs1)N1CCOCC1 (centres undefined)
IC50 [1]: > 100 µM (not active)

COc1cc(NC(=O)C2CC(c3cccc(OC)c3OC)=NO2)cc(OC)c1OC (centres undefined)
IC50 [4]: 4.19 µM (active)

COc1ccc(CCNCc2ccc(C)s2)cc1OC
CC50 [5]: > 40 µM (active)
IC50 [6]: > 100 µM (active)

CCc1ccc(N/C(SCc2cccc(F)c2)=C(/C#N)C(=O)NCc2ccco2)cc1
CC50 [7]: > 40 µM (active)
EC50 [8]: 1.7 µM (active)
EC50 [9]: 10.4 µM (active)

C=CCOc1c(CNc2cccc(C(=O)O)c2)cccc1OC
IC50 [3]: 2.39 µM (active)

O=C(NC(=S)Nc1ccc(F)c(Cl)c1)C1CC1
EC50 [10]: 0.861 µM (active)

COc1ccc(S(=O)(=O)NC2CC(C)(C)NC(C)(C)C2)c(C)c1C
IC50 [6]: > 100 µM (active)

COc1cc(NC(=O)COc2cc(O)c3c(c2)OC(C)(C)CC3=O)cc(OC)c1OC
IC50 [11]: 69.1 µM (inactive)
AC50 [12]: 5.36 µM (active)
AC50 [13]: 3.99 µM (active)
AC50 [14]: 354 nM (active)
IC50 [15]: 2.54 µM (active)
IC50 [16]: 39.9 µM (inactive)
AC50 [17]: 727 nM (active)
AC50 [18]: 2.04 µM (active)

CN1CCN(c2ccccc2NC(=O)C(Cc2ccccc2)n2cccc2)CC1 (centres undefined)
IC50 [6]: > 100 µM (active)
AC50 [19]: 6.11 µM (active)
AC50 [20]: 17.5 µM (active)
AC50 [21]: 6.39 µM (active)
AC50 [22]: 12.3 µM (active)

Fc1ccc(C(CCCn2nnc(-c3cccnc3)n2)c2ccc(F)cc2)cc1
CC50 [7]: > 40 µM (active)
EC50 [23]: 13.7 µM (active)
EC50 [8]: 2.22 µM (active)
EC50 [24]: 16.3 µM (active)
EC50 [9]: > 30 µM (not active)
EC50 [25]: > 120 µM (not active)

COc1cc(/C=N/Nc2ccc(Cl)c(C(=O)O)c2)ccc1OC(=O)c1cccs1
AC50 [26]: 5.23 µM (active)
IC50 [3]: 1.32 µM (active)
IC50 [27]: 55.5 µM (active)

C/C(=N\NC(=O)c1cccnc1)c1ccc(-n2ccnc2)cc1
EC50 [10]: 5.46 µM (active)

CC(=O)OCC1=C(C(=O)O)N2C(=O)[C@@H](NC(=O)Cc3cccs3)[C@H]2SC1 [CEPHALOTHIN SODIUM]
IC50 [1]: 0.92 µM (active)

From ChEMBL document CHEMBL1201862, “PubChem BioAssay data set” (2004)
